From PubChem BioAssay (NCI)
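Assay format: 96-well plates, 48-hour exposure. At the GI50, growth is halved. TGI: total growth inhibition.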

Legend:
Test in all cases: DTP human tumour cell line panel, 48 h
[1] = test system: 786-0 renal
[2] = test system: A498 renal
[3] = test system: A549 NSCLC
[4] = test system: ACHN renal
[5] = test system: BT-549 breast
[6] = test system: CAKI-1 renal
[7] = test system: CCRF-CEM leukemia
[8] = test system: COLO 205 colon
[9] = test system: DU-145 prostate
[10] = test system: EKVX NSCLC
[11] = test system: HCC-2998 colon
[12] = test system: HCT-116 colon
[13] = test system: HCT-15 colon
[14] = test system: HL-60(TB) leukemia
[15] = test system: HS 578T breast
[16] = test system: HT29 colon
[17] = test system: K-562 leukemia
[18] = test system: KM12 colon
[19] = test system: LOX IMVI melanoma
[20] = test system: M14 melanoma
[21] = test system: MALME-3M melanoma
[22] = test system: MDA-MB-231 breast
[23] = test system: MDA-MB-435
[24] = test system: MOLT-4 leukemia
[25] = test system: NCI-H226 lung
[26] = test system: NCI-H23 lung
[27] = test system: NCI-H460 lung
[28] = test system: NCI/ADR-RES ovarian
[29] = test system: OVCAR-3 ovarian
[30] = test system: OVCAR-4 ovarian
[31] = test system: OVCAR-5 ovarian
[32] = test system: PC-3 prostate
[33] = test system: RPMI-8226 leukemia
[34] = test system: SF-268 CNS
[35] = test system: SF-295 CNS
[36] = test system: SF-539 CNS
[37] = test system: SK-MEL-28 melanoma
[38] = test system: SK-MEL-5 melanoma
[39] = test system: SK-OV-3 ovarian
[40] = test system: SN12C renal
[41] = test system: SNB-75 CNS
[42] = test system: SR leukemia
[43] = test system: SW-620 colon
[44] = test system: T-47D breast
[45] = test system: TK-10 renal
[46] = test system: UACC-257 melanoma
[47] = test system: UACC-62 melanoma
[48] = test system: UO-31 renal
[49] = test system: HOP-62 NSCLC
[50] = test system: HOP-92 NSCLC
[51] = test system: IGROV1 ovarian
[52] = test system: MCF7 breast
[53] = test system: NCI-H522 lung
[54] = test system: OVCAR-8 ovarian
[55] = test system: RXF 393 renal
[56] = test system: SK-MEL-2 melanoma
[57] = test system: SNB-19 CNS
[58] = test system: U251 CNS

SMILES: COc1cc2nc(Cl)nc(Nc3cccc(C4=Nc5c(N)nc(N)nc5NC(c5ccc(F)cc5)C4)c3)c2cc1OC (stereo not drawn)
- GI50 [1]: 1560 nM
- TGI [1]: 2990 nM
- GI50 [2]: 1010 nM
- TGI [2]: 2470 nM
- GI50 [3]: 2640 nM
- TGI [3]: 7820 nM
- GI50 [4]: 1740 nM
- TGI [4]: 3220 nM
- GI50 [5]: 2290 nM
- TGI [5]: 4360 nM
- GI50 [6]: 1610 nM
- TGI [6]: 3270 nM
- GI50 [7]: 1050 nM
- TGI [7]: 4140 nM
- GI50 [8]: 1770 nM
- TGI [8]: 3510 nM
- GI50 [9]: 1770 nM
- TGI [9]: 3440 nM
- GI50 [10]: 1500 nM
- TGI [10]: 3990 nM
- GI50 [11]: 1920 nM
- TGI [11]: 3480 nM
- GI50 [12]: 1760 nM
- TGI [12]: 3340 nM
- GI50 [13]: 1960 nM
- TGI [13]: 4270 nM
- GI50 [14]: 1950 nM
- TGI [14]: 4090 nM
- GI50 [15]: 1980 nM
- TGI [15]: 4530 nM
- GI50 [16]: 2050 nM
- TGI [16]: 4380 nM
- GI50 [17]: 1960 nM
- TGI [17]: 4680 nM
- GI50 [18]: 1880 nM
- TGI [18]: 3610 nM
- GI50 [19]: 1780 nM
- TGI [19]: 3510 nM
- GI50 [20]: 1860 nM
- TGI [20]: 3700 nM
- GI50 [21]: 2010 nM
- TGI [21]: 3760 nM
- GI50 [22]: 1490 nM
- TGI [22]: 3030 nM
- GI50 [23]: 1660 nM
- TGI [23]: 3110 nM
- GI50 [24]: 1770 nM
- TGI [24]: 5450 nM
- GI50 [25]: 3220 nM
- TGI [25]: 16600 nM
- GI50 [26]: 2000 nM
- TGI [26]: 4730 nM
- GI50 [27]: 1910 nM
- TGI [27]: 3820 nM
- GI50 [28]: 6070 nM
- TGI [28]: > 100000 nM
- GI50 [29]: 1850 nM
- TGI [29]: 3550 nM
- GI50 [30]: 1630 nM
- TGI [30]: 3380 nM
- GI50 [31]: 1790 nM
- TGI [31]: 3550 nM
- GI50 [32]: 2170 nM
- TGI [32]: 6680 nM
- GI50 [33]: 1770 nM
- TGI [33]: 4420 nM
- GI50 [34]: 1680 nM
- TGI [34]: 3680 nM
- GI50 [35]: 1820 nM
- TGI [35]: 3500 nM
- GI50 [36]: 1530 nM
- TGI [36]: 2930 nM
- GI50 [37]: 1620 nM
- TGI [37]: 3040 nM
- GI50 [38]: 1650 nM
- TGI [38]: 3020 nM
- GI50 [39]: 25700 nM
- TGI [39]: 59300 nM
- GI50 [40]: 1720 nM
- TGI [40]: 3480 nM
- GI50 [41]: 1130 nM
- TGI [41]: 2420 nM
- GI50 [42]: 1960 nM
- TGI [42]: 4800 nM
- GI50 [43]: 1760 nM
- TGI [43]: 3600 nM
- GI50 [44]: 1930 nM
- TGI [44]: 4640 nM
- GI50 [45]: 1950 nM
- TGI [45]: 3860 nM
- GI50 [46]: 1960 nM
- TGI [46]: 3940 nM
- GI50 [47]: 1760 nM
- TGI [47]: 3310 nM
- GI50 [48]: 1550 nM
- TGI [48]: 3540 nM

SMILES: Nc1ccccc1NC(=O)c1ccc(NC(=O)C/C=C/c2cccnc2)cc1
- GI50 [1]: 2740 nM
- TGI [1]: > 50000 nM
- GI50 [2]: 586 nM
- TGI [2]: 2290 nM
- GI50 [3]: 2800 nM
- TGI [3]: > 50000 nM
- GI50 [4]: 2240 nM
- TGI [4]: > 50000 nM
- GI50 [5]: 1170 nM
- TGI [5]: 4720 nM
- GI50 [6]: 2390 nM
- TGI [6]: > 50000 nM
- GI50 [7]: 225 nM
- TGI [7]: > 50000 nM
- GI50 [8]: 813 nM
- TGI [8]: 7100 nM
- GI50 [9]: 905 nM
- TGI [9]: 2970 nM
- GI50 [10]: 2250 nM
- TGI [10]: > 50000 nM
- GI50 [11]: 953 nM
- TGI [11]: 4540 nM
- GI50 [12]: 176 nM
- TGI [12]: 4370 nM
- GI50 [13]: 1320 nM
- TGI [13]: > 50000 nM
- GI50 [14]: 448 nM
- TGI [14]: > 50000 nM
- GI50 [49]: 2000 nM
- TGI [49]: > 50000 nM
- GI50 [50]: 341 nM
- TGI [50]: 8330 nM
- GI50 [15]: 1660 nM
- TGI [15]: > 50000 nM
- GI50 [16]: 1170 nM
- TGI [16]: > 50000 nM
- GI50 [51]: 1140 nM
- TGI [51]: > 50000 nM
- GI50 [17]: 289 nM
- TGI [17]: > 50000 nM
- GI50 [18]: 8480 nM
- TGI [18]: > 50000 nM
- GI50 [20]: 1370 nM
- TGI [20]: > 50000 nM
- GI50 [21]: 247 nM
- TGI [21]: 3560 nM
- GI50 [52]: 1090 nM
- TGI [52]: 8320 nM
- GI50 [22]: 6420 nM
- TGI [22]: > 50000 nM
- GI50 [23]: 1390 nM
- TGI [23]: 8020 nM
- GI50 [24]: 1050 nM
- TGI [24]: > 50000 nM
- GI50 [25]: 1430 nM
- TGI [25]: > 50000 nM
- GI50 [26]: 1550 nM
- TGI [26]: 26600 nM
- GI50 [27]: 1450 nM
- TGI [27]: > 50000 nM
- GI50 [53]: 513 nM
- TGI [53]: > 50000 nM
- GI50 [28]: 3230 nM
- TGI [28]: > 50000 nM
- GI50 [30]: 3680 nM
- TGI [30]: > 50000 nM
- GI50 [31]: 803 nM
- TGI [31]: > 50000 nM
- GI50 [54]: 159 nM
- TGI [54]: > 50000 nM
- GI50 [32]: 1260 nM
- TGI [32]: > 50000 nM
- GI50 [33]: 605 nM
- TGI [33]: 5570 nM
- GI50 [55]: 784 nM
- TGI [55]: 3860 nM
- GI50 [34]: 1930 nM
- TGI [34]: > 50000 nM
- GI50 [35]: 1670 nM
- TGI [35]: 11300 nM
- GI50 [36]: 181 nM
- TGI [36]: 26400 nM
- GI50 [56]: 2390 nM
- TGI [56]: > 50000 nM
- GI50 [37]: 962 nM
- TGI [37]: 2650 nM
- GI50 [38]: 957 nM
- TGI [38]: 1910 nM
- GI50 [39]: 2400 nM
- TGI [39]: > 50000 nM
- GI50 [40]: 320 nM
- TGI [40]: > 50000 nM
- GI50 [57]: 2250 nM
- TGI [57]: > 50000 nM
- GI50 [41]: 1260 nM
- TGI [41]: > 50000 nM
- GI50 [42]: 382 nM
- TGI [42]: > 50000 nM
- GI50 [43]: 231 nM
- TGI [43]: > 50000 nM
- GI50 [44]: 623 nM
- TGI [44]: > 50000 nM
- GI50 [45]: 103 nM
- TGI [45]: > 50000 nM
- GI50 [58]: 1040 nM
- TGI [58]: > 50000 nM
- GI50 [46]: 1230 nM
- TGI [46]: > 50000 nM
- GI50 [47]: 1060 nM
- TGI [47]: 4980 nM
- GI50 [48]: 1540 nM
- TGI [48]: > 50000 nM
